Measurements: patent US7074824B2, “Pharmaceutical compositions containing beta-lapachone, or derivatives or analogs thereof, and methods of using same” (Arqule, Inc., priority 2001, dated 2006)

Columns and labels:
human carcinoma cells = assay: Colony formation assay of β-lapachone combined with Taxol®; type: cell-based; conditions: 4 h exposure, colonies scored after 10–20 days; ovarian, breast, prostate, melanoma, lung and pancreatic cell lines, FIG. 4
Description: In these studies, exponentially growing cells were seeded at 1,000 cells per well in six-well plates and allowed to attach for 48 h. β-lapachone and/or Taxol®, solubilized in DMSO, were added to the wells. Control wells were treated with equivalent volumes of DMSO. After 4 h cells were rinsed and fresh medium was added. Cultures were observed daily for 10–20 days and then were fixed and stained. Colonies of greater than 30 cells were scored as survivors.

[1] = system: Human ovarian cancer cells (36M2); assay: Human ovarian cancer xenograft model, β-lapachone in Lipiodol and Taxol®; type: in vivo, athymic female nude mice; conditions: i.p., 10 cycles
Description: Human ovarian cancer cells (36M2, originally isolated from malignant ascites) were inoculated by i.p. injection into athymic female nude mice 24 h after irradiation. In this model, metastatic foci form approximately 1 week after inoculation, and tumor nodules of the peritoneum and malignant ascites develop in 4–5 weeks. Ten days after tumor inoculation (10×10^6 cells), treatment regimens were initiated. The control group was treated with vehicle alone. In each typical treatment cycle, the β-lapachone alone group was treated with 25–50 mg/kg i.p. of β-lapachone in Lipiodol solution and the Taxol® alone group was treated at 1 mg/kg i.p. (Taxol® formulation diluted in Lipiodol), both followed 24 h later by i.p. injection of vehicle. In the combination group, nude mice were treated with β-lapachone at 25–50 mg/kg, followed 24 h later by Taxol® at 1 mg/kg. All groups were treated for 10 cycles, with a 1-day break between each cycle. […] Host toxicity was evaluated by general appearance and body weight.

A2780DDP = conditions: stated as typical value, read-out: IC50 concentration; cited from earlier work

Compound	inhibition of cancer cell survival (colony formation) (human carcinoma cells)	decrease in tumor number versus control ([1]; assessed day 50, β-lapachone 25–50 mg/kg in Lipiodol, Taxol® 1 mg/kg) [%]	size of the tumor nodules and amount of ascites ([1]; laparotomy at day 50)	IC50 (A2780DDP) [µM]
CC(=O)O[C@H]1C(=O)[C@@]2(C)[C@H]([C@H](OC(=O)c3ccccc3)[C@]3(O)C[C@H](OC(=O)[C@H](O)[C@@H](NC(=O)c4ccccc4)c4ccccc4)C(C)=C1C3(C)C)[C@]1(OC(C)=O)CO[C@@H]1C[C@@H]2O [Taxol®, paclitaxel, reference compound]	much less effective	~60	considerable reduction in the size of the tumor nodules and the amount of ascites	–
N.N.[Cl][Pt][Cl] [cisplatin]	–	–	–	> 100
